Patent US20040161415A1, “Antitumor and antiviral medications and method for producing the same” (Lymphotec Inc., priority 2001, published 2004)

Test system: EL-4 cells (mouse-derived cancer cells)
Experiment: Measurement of antitumor effect: survival of C57BL/6 mice after intraperitoneal injection of EL-4 cells
Type: in vivo
Conditions: for Number of surviving mice: C57BL/6 mice with 5×10^4 EL-4 cells i.p., reserpine 200 μg/kg s.c. every four days
Description: Lymphocytes were collected from the spleen of a C57BL/6 mouse by first aseptically taking out the spleen, and mashing up the spleen with a pair of tweezers in a culture dish having a culture solution containing blood serum from cattle embryo The solution including the flaked spleen was filtrated through a mesh to obtain lymphocyte suspension. The lymphocyte suspension was transferred by 50 ml to a centrifuging tube with a pipette and centrifuged at 1500 rpm for 10 minutes.
After centrifugation, supernatant fluid was removed, and a culture solution was added to obtain 2×10^6/ml of solution. The resultant solution thus obtained was transferred to a culture dish containing solid-phase anti-CD3 antibody from a mouse and further cultivated for 4 days on a continuing basis. The resultant solution was farther rinsed with phosphate buffer (occasionally abbreviated as PBS) two times, thus to prepare lymphocytes before heating treatment.
After cultivating EL-4 cells (mouse-derived cancer cells) at 37° C. in an atmosphere of 5% carbon dioxide gas in a flask for 3 days, 50 ml of culture solution containing El-4 cells were transferred to a centrifuging tube with a pipette and centrifuged at 1500 rpm for 10 minutes. After centrifugation, supernatant fluid was removed, and pH-adjusted RPMI1640 culture medium was added thereto, and brought into suspension. Then, the resultant solution thus obtained was again centrifuged at 1500 rpm for 10 minutes, and hereafter, supernatant fluid was removed. Again supernatant fluid was removed, and the pH-adjusted RPMI1640 culture medium prepared previously was added thereto, and brought into suspension. Into the abdominal cavity of each C57BL/6 mouse, 5×10^4 of EL-4 cells in the ultimate solution resultantly obtained was injected to introduce the cancer cells thereinto.
After introducing the EL-4 cells, 3×10^6 of activated lymphocytes treated with heat, which were prepared in Example 1 described above were administered intravenously with administering subcutaneously reserpine thereto. To each mouse of a subject group, reserpine was subcutaneously given by 200 μg/kg every four days together with the […] lymphocytes, and to another control group composed of twelve mice, only the reserpine was given by 200 μg/kg every four days. The reserpine of Rauwolfia serpentina extract was used in this embodiment, but it may be made from a compound extracted from Rauwolfia serpentina or other compounds. Although the reserpine solely may be used as mentioned above, but it may be used as a secondary agent with other primary additives.

## COC(=O)[C@H]1[C@H]2C[C@@H]3c4[nH]c5cc(OC)ccc5c4CCN3C[C@H]2C[C@@H](OC(=O)c2cc(OC)c(OC)c(OC)c2)[C@@H]1OC [Resrpine, reserpine]
Lapsed days 23
  Number of surviving mice: 12
Lapsed days 24
  Number of surviving mice: 12
Lapsed days 25
  Number of surviving mice: 12
Lapsed days 26
  Number of surviving mice: 11
Lapsed days 27
  Number of surviving mice: 11
Lapsed days 28
  Number of surviving mice: 11
Lapsed days 29
  Number of surviving mice: 9
Lapsed days 30
  Number of surviving mice: 8
Lapsed days 31
  Number of surviving mice: 8
Lapsed days 32
  Number of surviving mice: 6
Lapsed days 33
  Number of surviving mice: 6
Lapsed days 34
  Number of surviving mice: 4
Lapsed days 35
  Number of surviving mice: 3
Result in words, summary of Table 1, EL-4 bearing C57BL/6 mice
  antitumor effect (survival rate of mice observed with time): brings about an antitumor effect
